Where two headings read alike, the source gives them in different places.
Legend:
synaptosomal proteome = assay type: binding, mouse
Description: Synaptosomes were resuspended to 1 mg of protein/ml in HEPES buffer medium (in mM: 140 NaCl, 5 KCl, 5 NaHCO3, 1.2 NaH2PO4, 1 MgCl2, 10 glucose, and 10 HEPES (pH 7.4)). […] The samples were allowed to equilibrate for 5 min before being transferred to a parafilm-sealed 1-mm path length quartz cuvette. The sample was then irradiated for 20 min at a peak bandwidth of 350 nm (Rayonet RPR-3500 lamp) ∼6 cm from the light source. Non-irradiated samples were left in the dark at ambient temperature (22–25 °C) for 20 min. All remaining procedures were conducted with restricted light exposure.
To 750 μg of photolabeled or control synaptosome samples, 40 μl of 10% SDS and 2 μl of 5 mM DTT in water were added. Samples were then vortexed, heated for 10 min at 65 °C, and then briefly cooled. Final concentrations of 150 μM azide-biotin (Click Chemistry Tools), 2 mM tris(3-hydroxypropyltriazolylmethyl)amine (Sigma), 1 mM ascorbic acid (Sigma), and 1 mM CuSO4·5H2O (Sigma) were added to each sample and vortexed vigorously. The samples were left in the dark at ambient temperature (22–25 °C) for 1 h with mild agitation. Directly to each sample 4× volume chilled methanol, 1.5× chilled chloroform, and 3× chilled double distilled H2O were added. Samples were vortexed vigorously and centrifuged at 1,400 × g for 30 min at 4 °C. Both liquid layers were carefully removed, and the protein pellet was washed with 2 ml of 1:1 (v/v) chilled methanol/chloroform. Samples were centrifuged at 3,500 × g for 30 min at 4 °C. Protein pellets were briefly air-dried before further processing.
750 μg of biotin-conjugated protein sample was resuspended in 500 μl of 25 mM NH4HCO3 and 6 M urea in water. Next, 150 μl of 5% Triton X-100 in water, 50 μl of 10% SDS in water, and 1.5 μl of 0.5 M DTT were added. The samples were heated for 15 min at 65 °C. After briefly cooling, 14 μl of 0.5 M iodoacetamide in water was added, and the sample was left in the dark for 45 min. […] The supernatant was diluted to 4 ml with PBS, and 2 ml of PBS containing 100 μl of 50% streptavidin-agarose resin (Thermo Scientific) was added. Biotinylated proteins within the sample were captured over resin overnight at 4 °C with mild agitation. The resin was first washed with 6 ml of 1% SDS in PBS, and then 7 ml of 0.1 M urea in PBS followed by 10 ml of PBS. The resin underwent a final wash with 0.9 ml of 50 mM Tris-HCl and 1 mM CaCl2 in water (pH 8.0) and then resuspended in 200 μl of 50 mM Tris-HCl, 1 mM CaCl2 in water (pH 8.0), and 2 μg of porcine sequencing grade trypsin (Promega). Samples were digested overnight at 37 °C. Samples were then centrifuged at 2,000 × g for 4 min, and digest supernatant was decanted. Beads were washed in 100 μl of PBS centrifuged at 5,200 × g for 5 min, and the wash was combined with the digest supernatant. To the combined sample, trifluoroacetic acid (TFA) was added to 0.4% (v/v) or until pH <2. The sample was desalted with Oasis C18 10-mg columns (Waters) as described previously ([66]). The eluted sample was dried by speed vac and resuspended in 0.1 M HEPES buffer (pH 8.5). […] Appropriate corresponding TMTsixplex^TM-labeled samples were pooled and dried by speed vac. The combined samples were resuspended in 0.5% acetic acid in water and pH-corrected with acetic acid until pH was <2. 40 μg of protein was desalted with C18 stage tips prepared in-house and dried by speed vac.
Samples were resuspended in 10 mM KH2PO4 (pH 2.6), 30% acetonitrile (v/v) in water, and fractionated by off-line strong cation exchange chromatography prior to mass spectrometry (MS) analysis similar to as reported previously ([66]). The full synaptosome proteome control was prepared similarly without TMTsixplex^TM labeling.
All TMT samples were analyzed with three-stage mass spectrometry (MS3) TMTsixplex^TM quantification workflow as described previously ([34]).

[1] = Physicochemical properties (density)
horse spleen apoferritin = biological target: T1, horse spleen apoferritin (Equus caballus, UniProt P02791); assay: Isothermal titration calorimetry binding to apoferritin; conditions: one-site model, read-out: KD (95% CI), ITC
T1 construct: soluble protein model horse spleen apoferritin; from tissue; host or cells: horse spleen
T1 sequence (P02791 2-175 limits assumed): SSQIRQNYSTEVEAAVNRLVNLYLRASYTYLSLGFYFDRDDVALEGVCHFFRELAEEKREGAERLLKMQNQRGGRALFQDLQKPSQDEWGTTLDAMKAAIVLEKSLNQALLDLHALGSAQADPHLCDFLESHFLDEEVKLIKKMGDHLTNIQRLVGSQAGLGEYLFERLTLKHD
Description: Isothermal titration calorimetry isotherms for binding to soluble protein model horse spleen apoferritin were conducted as reported previously ([31]) and were resolved using a VP-isothermal titration calorimetry microcalorimeter (MicroCal, Inc., Northampton, MA). Origin 5.0 software was used to best-fit thermodynamic parameters to the heat profiles.

α1β2γ2L GABAA receptors = biological target: T2, α1β2γ2L GABAA receptors (Homo sapiens, UniProt P14867+P47870); assay: cell-based
T2 construct: expressed in transfected cells; host or cells: Xenopus laevis oocytes
Description: GABAA receptor expression in X. laevis oocytes was completed as described previously ([40]). cDNAs for GABAA receptor α1, β2, and γ2L subunits were generously provided by Dr. Robert Pearce (University of Wisconsin). All animal care and experimental procedures involving X. laevis frogs were carried out according to a protocol approved by the IACUC of Thomas Jefferson University. GABAA receptor currents expressed in X. laevis oocytes were recorded as reported previously ([40]). Data acquisition and initial analysis were performed using pClamp 9.2/10.3 (Molecular Devices, Sunnyvale, CA). Macroscopic currents were low-pass filtered at 1 kHz and digitized at 2 kHz. Data were fit to a sigmoidal dose-response curve with variable Hill slope.

[2] = protein A2AI17 Glutamate receptor ionotropic, NMDA 1 (Grin1)
[3] = protein P70429-2 Isoform 1 of Ena/VASP-like protein (Evl)
[4] = protein P97300-3 Isoform 3 of Neuroplastin (Nptn)
[5] = protein Q8BJU0-2 Isoform 2 of Small glutamine-rich tetratricopeptide repeat-containing protein alpha (Sgta)
[6] = protein Q9DBF1-2 Isoform 2 of Alpha-aminoadipic semialdehyde dehydrogenase (Aldh7a1)
[7] = protein Q9EPJ9-2 Isoform 2 of ADP-ribosylation factor GTPase-activating protein 1 (Arfgap1)
[8] = protein Q8CFX3 Protein Pcdh1 (Pcdh1)

T2 sequence (P14867 28-456): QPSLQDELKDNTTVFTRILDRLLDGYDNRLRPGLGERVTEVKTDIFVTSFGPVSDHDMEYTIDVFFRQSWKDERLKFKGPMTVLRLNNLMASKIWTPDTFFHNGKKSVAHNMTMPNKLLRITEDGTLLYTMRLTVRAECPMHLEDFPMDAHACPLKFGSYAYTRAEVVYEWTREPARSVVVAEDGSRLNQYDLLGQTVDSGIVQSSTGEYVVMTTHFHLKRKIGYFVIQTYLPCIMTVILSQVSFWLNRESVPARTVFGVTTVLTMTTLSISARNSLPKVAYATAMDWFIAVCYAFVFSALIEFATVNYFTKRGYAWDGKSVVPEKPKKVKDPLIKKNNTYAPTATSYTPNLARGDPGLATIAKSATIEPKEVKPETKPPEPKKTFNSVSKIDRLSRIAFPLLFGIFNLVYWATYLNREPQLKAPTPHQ
T2 sequence (P47870 25-512 limits assumed): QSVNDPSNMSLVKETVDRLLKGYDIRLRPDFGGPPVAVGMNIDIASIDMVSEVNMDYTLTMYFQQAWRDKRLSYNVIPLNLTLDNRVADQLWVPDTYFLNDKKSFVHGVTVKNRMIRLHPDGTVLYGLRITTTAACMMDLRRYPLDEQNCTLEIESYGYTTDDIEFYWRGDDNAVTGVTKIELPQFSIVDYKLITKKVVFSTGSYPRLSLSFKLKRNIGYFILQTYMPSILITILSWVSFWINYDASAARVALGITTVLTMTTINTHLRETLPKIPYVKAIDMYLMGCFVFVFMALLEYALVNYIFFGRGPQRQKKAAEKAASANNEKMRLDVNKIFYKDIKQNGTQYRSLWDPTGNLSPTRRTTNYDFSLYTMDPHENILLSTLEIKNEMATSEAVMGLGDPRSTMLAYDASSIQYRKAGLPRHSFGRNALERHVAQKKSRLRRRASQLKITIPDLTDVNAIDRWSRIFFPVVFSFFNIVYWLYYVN
T2 sequence (P18507 40-475 partner): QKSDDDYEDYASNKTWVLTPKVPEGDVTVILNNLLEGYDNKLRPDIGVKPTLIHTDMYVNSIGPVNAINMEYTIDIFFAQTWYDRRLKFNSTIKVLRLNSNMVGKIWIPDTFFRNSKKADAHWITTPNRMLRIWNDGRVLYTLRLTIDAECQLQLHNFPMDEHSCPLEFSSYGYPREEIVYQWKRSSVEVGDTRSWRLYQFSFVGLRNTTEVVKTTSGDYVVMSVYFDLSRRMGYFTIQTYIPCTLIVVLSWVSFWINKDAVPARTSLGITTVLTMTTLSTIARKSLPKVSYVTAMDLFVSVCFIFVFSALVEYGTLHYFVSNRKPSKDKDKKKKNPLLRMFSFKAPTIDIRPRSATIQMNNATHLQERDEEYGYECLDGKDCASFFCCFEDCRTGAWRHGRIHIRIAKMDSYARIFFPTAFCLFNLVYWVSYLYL

## C#CCOCc1ccc(C2(C(F)(F)F)N=N2)cc1O [AziPm-click (1), 2-((prop-2-yn-1-yloxy)methyl)-5-(3-(trifluoromethyl)-3H-diazirin-3-yl)phenol]
Synaptosomal proteome; O35633-2 Slc32a1
  TMT Ratio Mean 'UV/ No UV': 20.27
Synaptosomal proteome; P60879-2 Snap25
  TMT Ratio Mean 'UV/ No UV': 23.67
Synaptosomal proteome; [2]
  Log2( Mean 'UV/ No UV'): 3.36
  TMT Ratio Mean 'UV/ No UV': 10.28
Synaptosomal proteome; protein P23819-4 Isoform 4 of Glutamate receptor 2 (Gria2)
  TMT Ratio Mean 'UV/ No UV': 12.58
Synaptosomal proteome; [3]
  TMT Ratio Mean 'UV/ No UV': 19.89
Synaptosomal proteome; [4]
  TMT Ratio Mean 'UV/ No UV': 12.71
Synaptosomal proteome; [5]
  TMT Ratio Mean 'UV/ No UV': 15.19
Synaptosomal proteome; [6]
  TMT Ratio Mean 'UV/ No UV': 14.82
Synaptosomal proteome; [7]
  TMT Ratio Mean 'UV/ No UV': 10.88
[1]
  Density: 1.19 g/mL
Horse spleen apoferritin
  Kd: 22 µM
α1β2γ2L GABAA receptors; read-out: EC50 for positive modulation
  EC50: 49 µM

## CC(C)c1cccc(C(C)C)c1O [propofol, 2,6-diisopropylphenol, reference compound]
Synaptosomal proteome; O35633-2 Slc32a1
  Log2( Mean 'UV/ UV+propofol'): 1.24
Synaptosomal proteome; Q8BKX1-4 Baiap2
  % propofol protection: 71%
  Log2( Mean 'UV/ UV+propofol'): 1.77
Synaptosomal proteome; Q8VDQ8-2 Sirt2
  % propofol protection: 71%
  Log2( Mean 'UV/ UV+propofol'): 1.61
Synaptosomal proteome; five GABAA receptor subunits (α1,3 and β1–3), enrichment factor = mean (+)UV/(−)UV TMT ratio
  decrease in enrichment factor with propofol protection: at least 10
Synaptosomal proteome; [2]
  % propofol protection: 57%
  Log2( Mean 'UV/ UV+propofol'): 1.07
Synaptosomal proteome; [3]
  % propofol protection: 56%
  Log2( Mean 'UV/ UV+propofol'): 1.14
Synaptosomal proteome; [4]
  Log2( Mean 'UV/ UV+propofol'): 1.17
Synaptosomal proteome; [5]
  % propofol protection: 56%
  Log2( Mean 'UV/ UV+propofol'): 1.02
Synaptosomal proteome; [8]
  % propofol protection: 50%
  Log2( Mean 'UV/ UV+propofol'): 0.87
Synaptosomal proteome; [6]
  % propofol protection: 52%
  Log2( Mean 'UV/ UV+propofol'): 0.94
Synaptosomal proteome; [7]
  % propofol protection: 56%
  Log2( Mean 'UV/ UV+propofol'): 1.06
[1]
  Density: 0.96 g/mL
Horse spleen apoferritin
  Kd: 9 µM
α1β2γ2L GABAA receptors
  EC50: 10 µM
